Assay results taken from patent US20100087534A1, “Use of a Photosensitizing Agent in the Treatment or Prevention of an Inflammation-Associated Disorder in the Gastrointestinal Tract of a Mammal” (priority 2005, published 2010).

Columns and labels:
[1] = tested on: IFN-γ; assay: IFN-γ expression index in colon of transfer colitis SCID mice (FIG. 2); assay type: in vivo
Method: (§1) FIG. 2 represents the expression indices of the proinflammatory markers IFN-γ and TNF-α in untransfered mice, disease control group and PDT group (15 mg/kg of δ-ALA, 10 J/cm^2).
(§2) Typically, the expression index of each pro-inflammatory marker of interest is calculated (normalized number of mRNA copies of each manipulated mice/normalized number of mRNA copies of the unmanipulated mice). The results are given as mean values of the expression index (unmanipulated mean mice index=1). […]
(§3) The third portion was used for measuring the expression of the molecules involved in immune and inflammatory phenomenons in the colonic mucosa (cytokines, chemokines). […] Quantification of reverse transcripted messenger RNA for GAPDH, the inducible nitric oxide synthetase (iNOS), interferon-gamma (IFN-γ), interleukin-1 receptor antagonist (IL1-Ra), tumor necrosis factor alpha (TNF-α), interleukin 6 (IL-6), tumor growth factor beta (TGF-13) and interleukin10 (IL-10) was performed by quantitative real-time PCR in a BioRad Real-time PCR iCycler using specific pairs of primers and the green fluorescence dye SYBR—Green®. GAPDH was used to normalize quantifications within each individual sample (normalization of the number of mRNA copies for the gene of interest/1 million mRNA copies of the GAPDH gene of the investigated mouse). […]

[2] = tested on: TNF-α; assay: TNF-α expression index in colon of transfer colitis SCID mice (FIG. 2); assay type: in vivo
Method: as §1, §2, §3

[3] = tested on: SCID mice with TH1-mediated Crohn-like colitis after transfer of CD4+CD45RBhigh T-cells; assay: Histological analysis of colon after low dose PDT in transfer colitis (Example 2); assay type: in vivo
Method: Evolution of colitis in SCID mice was monitored every week by colonoscopic investigation after induction. Mice with moderately inflamed colons [endoscopic index of colitis severity (EICS) index 4-8] or marked inflamed colons (EICS 9-13) were randomly assigned to either a <<low dose>> PDT group or no treatment group (disease control group). Unmanipulated age-matched SCID mice served as negative controls.
PDT was performed with a photosensitizing agent (δ-ALA) dose of 15 mg/kg, administered 3 hours before the illumination with the energy dose of 10 J/cm^2 per gastrointestinal tract tissue.
The illumination time was 100 s, the wavelength 635 nm.
Mice were monitored by colonoscopy at day 3 and weeks 1, 2, 3 and 4 post PDT treatment. In addition to parameters investigated in example 1, CD4 immunostaining and apoptosis detection were performed.

[4] = tested on: TNF-α; assay: Expression index of TNF-α mRNA in illuminated colon, quantitative real-time PCR; assay type: in vivo, BALB/c mice
Description: (§4) The third portion was used for measuring the expression of the molecules involved in immune and inflammatory phenomenons in the colonic mucosa (cytokines, chemokines). For RNA extraction this portion was conserved in RNA-later solution (Ambion Inc. Austin, USA) until processing. RNA was extracted from the tissues using a Rneasy Mini kit (Qiagen, Hombrechtikon, Switzerland). RNA samples were submitted to a second or third DNAse treatment in order to get rid of all traces of genomic DNA. Quality of the RNA samples was tested on agarose gels and absence of genomic DNA was tested by PCR using primers specific for a house keeping gene, glyceraldehydes-3-phosphate-dehydrogenase (GAPDH). RNA preparations were then submitted to reverse transcription using the ThermoScript™ RT-PCR system (Invitrogen, Basel, Switzerland) using an Oligo-dT as primer. Quantification of reverse transcripted messenger RNA for GAPDH, the inducible nitric oxide synthetase (iNOS), interferon-gamma (IFN-γ), interleukin-1 receptor antagonist (IL1-Ra), tumor necrosis factor alpha (TNF-α), interleukin 6 (IL-6), tumor growth factor beta (TGF-13) and interleukin10 (IL-10) was performed by quantitative real-time PCR in a BioRad Real-time PCR iCycler using specific pairs of primers and the green fluorescence dye SYBR—Green®. GAPDH was used to normalize quantifications within each individual sample (normalization of the number of mRNA copies for the gene of interest/1 million mRNA copies of the GAPDH gene of the investigated mouse). Expression of each gene of interest was finally calculated as an expression index (normalized number of mRNA copies of each manipulated mice/normalized number of mRNA copies of the unmanipulated mice) and the results are given as mean values of the expression index (unmanipulated mean mice index=1). Furthermore one kidney and a part of the liver were collected for pathological analysis to exclude hepato- or nephrotoxicity.

[5] = Safety of colonoscopy and low/high dose PDT in wild type BALB/c mice
[6] = tested on: IFN-γ; assay: Expression index of IFN-γ mRNA in illuminated colon, quantitative real-time PCR; assay type: in vivo, BALB/c mice
Description: as §4

[7] = tested on: iNOS; assay: Expression index of iNOS mRNA in illuminated colon, quantitative real-time PCR; assay type: in vivo, BALB/c mice; details: high dose PDT: 50 J/cm^2, 60 mg δ-ALA; 74 h; unmanipulated mice index=1
Description: as §4, with “RNA preparations were then submitted to reverse transcription using the ThermoScript™ RT-PCR system (Invitrogen, Basel, Switzerland) using an Oligo-dT as primer.” left out, “Expression of each gene of interest was finally calculated as an expression index (normalized number of mRNA copies of each manipulated mice/normalized number of mRNA copies of the unmanipulated mice) and the results are given as mean values of the expression index (unmanipulated mean mice index=1). Furthermore one kidney and a part of the liver were collected for pathological analysis to exclude hepato- or nephrotoxicity.” left out

[8] = tested on: IL-1Ra; assay: Expression index of IL-1Ra mRNA in illuminated colon, quantitative real-time PCR; assay type: in vivo, BALB/c mice
Description: as §4

[9] = 15 mg/kg δ-ALA, 10 J/cm^2, versus disease control group (FIG. 2)
[10] = 10 J/cm^2, 15 mg/kg δ-ALA, compared to "colonoscopy" mice, deduced from FIG. 2
[11] = high dose PDT: 50 J/cm^2, 60 mg δ-ALA, 74 h, unmanipulated mice index=1
[12] = low dose PDT 15 mg/kg δ-ALA, 10 J/cm2
[13] = low dose PDT 5J/cm2, 15 mg/kg δ-ALA

In the case of NCC(=O)CCC(=O)O [δ-ALA, 5-aminolevulinic acid], the “expression index IFN-γ after low dose PDT” value [1, 9] is reported as “decreased significantly”, the “decrease of the expression of pro-inflammatory marker IFN-γ” value [1, 10] is reported as 73% and the “expression index TNF-α after low dose PDT” value [2, 9] is reported as “decreased significantly”. For the same compound, the “decrease of the expression of pro-inflammatory marker TNF-α” value [2, 10] was 63%, the “histology of illuminated portion of colon” value ([3]; PDT-treated mice, illuminated portion) was “a normal mucosa with low cellular infiltration” and the “histological score of inflammation” value ([3]; marked inflamed mice, 3 days after PDT, DC mice 7.7±0.6, P=0.0250) was 4.6±0.8. The “expression index TNF-α” value [4, 11] was 5.19±0.93, the “expression index TNF α” value [4, 12] was 1.16±0.21 and the “expression index TNF α” value [4, 13] was 4.49±2.86. The “signs of skin phototoxicity” value ([5]; all experimental groups) was “no signs of skin phototoxicity were observed”, the “histology of colon (microscopic changes)” value ([5]; all groups other than high dose PDT) was “no microscopic changes were observed” and the “exterior aspect of mice (quality of life)” value ([5]; all groups other than high dose PDT (low dose PDT, δ-ALA only), 74 h observation) was “the exterior aspect of mice remained unchanged”. For the same compound, the “changes in the blood formula” value ([5]; any of the experimental conditions, 0 and 74 h) was “No significant changes in the blood formula were seen”, the “inflammatory cells by anti-MAC immunostaining” value ([5]; high dose PDT, compared to naïve mice) was “an increase of inflammatory cells was observed” and the “inflammatory cells by anti-MAC immunostaining” value ([5]; low dose PDT) was “did not lead to an increase in inflammatory cells”. For the same compound, the “macroscopic aspect of colon” value ([5]; low dose PDT, 74 hours) was “the colon appeared macroscopically normal”, the “expression index IFN-γ” value [6, 11] was 5.36±1.67 and the “expression index IFN-γ” value [6, 12] was 0.93±0.09. The “expression index IFN-γ” value [6, 13] was 1.92±0.50, the “expression index iNOS” value [7] was 27.78±10.47 and the “expression index IL-1Ra” value [8, 11] was 4.54±1.21. The “expression index IL-1Ra” value [8, 12] was 0.94±0.08 and the “expression index IL-1Ra” value [8, 13] was 1.14±0.11.
